For assay [1], the target named is hPARG (C-terminal His6-tag) (Homo sapiens (Human), UniProt Q86W56). As to the kind of experiment: PARG Enzymatic Activity Assay (HTRF). It counts as biochemical. To be noted: hPARG 65 pM final, biotinylated-NAD ribosylated PARP1 8 nM final. Here is the method:
PARG Enzymatic Activity Assay HTRF assay was used to measure the ability of compounds to inhibit the activity of PARG in vitro. C-terminal His6-tag PARG expressed in E. coli was purified and stored at −80° C. in aliquots. Assay measurements were performed with 1×buffer comprising 50 mM Tris pH 7.4, 0.1 mg/mL BSA, 3 mM EDTA, 0.4 mM EGTA, 1 mM DTT, 50 mM KCl and 0.01% Tween 20.
Compounds dissolved in DMSO were plated into a 384-well assay plate (PerkinElmer, Catalog #: 6008280) in duplicate using a dispenser (Labcyte, Echo 665), and tested on a 10-point 4-fold serial dilution. Add 5 L Enzyme mix [hPARG (C-terminal His6-tag, 4.2 μM), 65 pM final] to the test wells. The plates were covered and left to incubate for 60 minutes at RT before the addition of 5 L substrate mix [biotinylated-NAD ribosylated PARP1 (6.1 μM), 8 nM final] to initiate reaction. After incubating 10 minutes at RT, add 2.5 L Streptavidin-Eu cryptate (Cisbio, Catalog #: 610SAKLA) and 2.5 L Mab anti 6HIS-XL665 (Cisbio, Catalog #: 61HISXLA) to the plate, and incubate for 60 minutes at RT. Read on a multimode plate reader (PerkinElmer, Envision 2015) in time-resolved fluorescence (TRF) mode, with excitation at 337 nm and emission at both 620 nm and 665 nm. Average HTRF signal of high control (Wells with 1% DMSO) was calculated and as Vehicle Control (VC). Average HTRF signal of low control (no Enzyme) was calculated and as Positive control (PC).
(§1) IC50 values were determined by fitting the data to the standard 4 parameters with Hill Slope using GraphPad Prism software.
For orientation: In TR-FRET formats the signal depends on donor and acceptor labels being close together.

In the next assay the test system is Kuramochi cell line. The assay can be described thus: Cell Viability Assay (Cell Titer-Glo, 7 days). It counts as cell-based. To be noted: 168 h, Kuramochi cells, 7 days incubation, read-out: PARG Cell viability (IC50). As to the method:
Cell viability studies were conducted in Kuramochi cell line. Cells were maintained in RPMI (Hyclone, Catalog #: SH3080901B) supplemented with 10% v/v FBS (AusGeneX, Catalog #: FBS500-S), 1% v/v Penicillin Streptomycin (Gibco, Catalog #: 15140122). Cells were seeded in 96-well plates (PerkinElmer, Catalog #: 6005680) at a density of 400 cells/well. Compounds dissolved in DMSO were plated in duplicate using a multichannel pipette, and tested on a 9-point 3-fold serial dilution. Cells were incubated for 7 days in a 37° C. active humidified incubator at 5% CO2. Cell viability was measured using the Cell Titer-Glo reagent (Promega, Catalog #: G7573) as manufacturer's instructions. Luminescence signal was measured with a multimode plate reader (Perkin Elmer, Envision 2105 or BMG, ClarioStar Plus). Average values of DMSO treated wells in a plate was calculated and as high control (HC). Average values of only medium in a plate was calculated and as low control (LC)
as §1
For orientation: Cellular ATP, detected with luciferase, serves as a proxy for viable cell number.

This note sets out measurements from US20250388589A1, “TRICYCLIC HETEROCYCLIC DERIVATIVES, COMPOSITIONS AND USES THEREOF” (Danatlas Pharmaceuticals Co., Ltd., priority 2022, published 2025).

A word on the IC50: it is the point on the concentration scale where inhibition reaches its midpoint.

Each structure is given as a SMILES string.

Chain of hPARG (C-terminal His6-tag) (Q86W56 whole entry): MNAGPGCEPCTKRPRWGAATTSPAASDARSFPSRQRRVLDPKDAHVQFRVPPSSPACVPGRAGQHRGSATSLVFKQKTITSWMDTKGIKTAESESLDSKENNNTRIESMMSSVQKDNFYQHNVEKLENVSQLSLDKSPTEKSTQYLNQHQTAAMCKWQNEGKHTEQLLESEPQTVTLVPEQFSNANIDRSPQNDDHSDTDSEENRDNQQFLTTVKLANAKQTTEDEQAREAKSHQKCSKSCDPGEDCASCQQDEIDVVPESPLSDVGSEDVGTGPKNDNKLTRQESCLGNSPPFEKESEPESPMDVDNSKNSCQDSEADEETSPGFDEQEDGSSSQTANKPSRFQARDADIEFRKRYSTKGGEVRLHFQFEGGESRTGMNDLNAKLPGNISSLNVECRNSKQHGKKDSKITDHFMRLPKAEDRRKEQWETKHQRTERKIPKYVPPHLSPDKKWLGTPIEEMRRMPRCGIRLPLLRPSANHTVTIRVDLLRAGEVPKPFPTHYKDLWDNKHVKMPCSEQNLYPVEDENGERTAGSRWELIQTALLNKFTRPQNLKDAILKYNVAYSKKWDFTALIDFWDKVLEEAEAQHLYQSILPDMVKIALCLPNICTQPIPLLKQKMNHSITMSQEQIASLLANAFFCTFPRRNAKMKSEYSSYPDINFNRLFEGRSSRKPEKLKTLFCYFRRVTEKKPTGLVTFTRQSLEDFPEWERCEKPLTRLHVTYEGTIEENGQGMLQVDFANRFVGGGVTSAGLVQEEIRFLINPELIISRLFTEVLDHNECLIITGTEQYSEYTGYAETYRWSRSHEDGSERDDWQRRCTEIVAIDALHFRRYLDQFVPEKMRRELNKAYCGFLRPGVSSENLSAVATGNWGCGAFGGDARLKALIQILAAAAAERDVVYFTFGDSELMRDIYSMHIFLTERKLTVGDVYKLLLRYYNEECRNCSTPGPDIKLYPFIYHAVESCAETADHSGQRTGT

With `CC(C)C(=O)N1C[C@@H](C)N(c2ncnc3c2c2ccc(S(=O)(=O)NC4(C#N)CC4)cc2n3-c2nnc(C(F)F)s2)C[C@@H]1C` [Example 33, N-(1-Cyanocyclopropyl)-9-(5-(difluoromethyl)-1,3,4-thiadiazol-2-yl)-4-((2R,5S)-4-isobutyryl-2,5-dimethylpiperazin-1-yl)-9H-pyrimido[4,5-b]indole-7-sulfonamide], the 50% inhibitory concentration (IC50) (in assay [1]; with Kuramochi cell line) was less than 100 nM throughout.
`N#CC1(NS(=O)(=O)c2ccc3c4c(N5CCN(C(=O)C6CCOC6)CC5)ncnc4n(-c4nnc(C(F)F)s4)c3c2)CC1` (centres unmarked) [Example 34, N-(1-Cyanocyclopropyl)-9-(5-(difluoromethyl)-1,3,4-thiadiazol-2-yl)-4-(4-(tetrahydrofuran-3-carbonyl)piperazin-1-yl)-9H-pyrimido[4,5-b]indole-7-sulfonamide]: the IC50 (in assay [1]; in the assay with Kuramochi cell line) was less than 100 nM in each case.
As to `Cc1ccc(C(=O)N2CCN(c3ncnc4c3c3ccc(S(=O)(=O)NC5(C#N)CC5)cc3n4-c3nnc(C(F)F)s3)CC2)nc1` [Example 35, N-(1-Cyanocyclopropyl)-9-(5-(difluoromethyl)-1,3,4-thiadiazol-2-yl)-4-(4-(5-methylpicolinoyl)piperazin-1-yl)-9H-pyrimido[4,5-b]indole-7-sulfonamide], the IC50 (in assay [1]; in the assay with Kuramochi cell line) was less than 100 nM each time.
For `CC1(C(=O)N2CC3CN(c4ncnc5c4c4ccc(S(=O)(=O)NC6(C#N)CC6)cc4n5-c4nnc(C(F)F)s4)CC3C2)CC1` (centres unmarked) [Example 36, N-(1-Cyanocyclopropyl)-9-(5-(difluoromethyl)-1,3,4-thiadiazol-2-yl)-4-(5-(1-methylcyclopropane-1-carbonyl)hexahydropyrrolo[3,4-c]pyrrol-2(1H)-yl)-9H-pyrimido[4,5-b]indole-7-sulfonamide], the results for the half-inhibitory concentration (IC50) (in assay [1]; with Kuramochi cell line) were less than 100 nM and 100 to 1000 nM, respectively.
`C[C@H]1CN(c2ncnc3c2c2ccc(S(=O)(=O)NC4(C#N)CC4)cc2n3-c2nnc(C(F)F)s2)CCN1C(=O)N(C)C` [Example 37, (S)-4-(7-(N-(1-Cyanocyclopropyl)sulfamoyl)-9-(5-(difluoromethyl)-1,3,4-thiadiazol-2-yl)-9H-pyrimido[4,5-b]indol-4-yl)-N,N,2-trimethylpiperazine-1-carboxamide]: the IC50 (in assay [1]; in the assay with Kuramochi cell line) was less than 100 nM in each case.
For `CC(C)C(=O)N1C[C@H](C)N(c2ncnc3c2c2ccc(S(=O)(=O)NC4(C#N)CC4)cc2n3-c2nnc(C(F)F)s2)C[C@H]1C` [Example 38, N-(1-Cyanocyclopropyl)-9-(5-(difluoromethyl)-1,3,4-thiadiazol-2-yl)-4-((2S,5R)-4-isobutyryl-2,5-dimethylpiperazin-1-yl)-9H-pyrimido[4,5-b]indole-7-sulfonamide], the IC50 in assay [1] was less than 100 nM; in the assay on Kuramochi cell line, 100 to 1000 nM.
In the same order, the values of `C[C@@H]1CN(c2ncnc3c2c2ccc(S(=O)(=O)NC4(C#N)CC4)cc2n3-c2nnc(C(F)F)s2)C[C@H](C)N1C(=O)CN1CCOCC1` [Example 39, N-(1-Cyanocyclopropyl)-9-(5-(difluoromethyl)-1,3,4-thiadiazol-2-yl)-4-((3R,5S)-3,5-dimethyl-4-(2-morpholinoacetyl)piperazin-1-yl)-9H-pyrimido[4,5-b]indole-7-sulfonamide] are less than 100 nM and less than 100 nM.
Turning to `N#CC1(NS(=O)(=O)c2ccc3c4c(N5CCN(CC6CC6)C(=O)C5)ncnc4n(-c4nnc(C(F)F)s4)c3c2)CC1` [Example 40, N-(1-Cyanocyclopropyl)-4-(4-(cyclopropylmethyl)-3-oxopiperazin-1-yl)-9-(5-(difluoromethyl)-1,3,4-thiadiazol-2-yl)-9H-pyrimido[4,5-b]indole-7-sulfonamide], the IC50 (in assay [1]; in the assay on Kuramochi cell line) was less than 100 nM throughout.
For the compound `N#CC1(NS(=O)(=O)c2ccc3c4c(N5CCN(C(=O)N6CCCC6)CC5)ncnc4n(-c4nnc(C(F)F)s4)c3c2)CC1` [Example 41, N-(1-Cyanocyclopropyl)-9-(5-(difluoromethyl)-1,3,4-thiadiazol-2-yl)-4-(4-(pyrrolidine-1-carbonyl)piperazin-1-yl)-9H-pyrimido[4,5-b]indole-7-sulfonamide], the IC50 (in assay [1]; in the assay on Kuramochi cell line) was less than 100 nM in each case.
Regarding `CN(CC(F)(F)F)C(=O)N1CCN(c2ncnc3c2c2ccc(S(=O)(=O)NC4(C#N)CC4)cc2n3-c2nnc(C(F)F)s2)CC1` [Example 42, 4-(7-(N-(1-Cyanocyclopropyl)sulfamoyl)-9-(5-(difluoromethyl)-1,3,4-thiadiazol-2-yl)-9H-pyrimido[4,5-b]indol-4-yl)-N-methyl-N-(2,2,2-trifluoroethyl)piperazine-1-carboxamide], the IC50 (in assay [1]; with Kuramochi cell line) was less than 100 nM throughout.
On to `CN(C)C(=O)c1ccc(-c2ncnc3c2c2ccc(S(=O)(=O)NC4(C#N)CC4)cc2n3-c2nnc(C(F)F)s2)cc1` [Example 43, 4-(7-(N-(1-Cyanocyclopropyl)sulfamoyl)-9-(5-(difluoromethyl)-1,3,4-thiadiazol-2-yl)-9H-pyrimido[4,5-b]indol-4-yl)-N,N-dimethylbenzamide], for which the IC50 in assay [1] is less than 100 nM; in the assay with Kuramochi cell line, 100 to 1000 nM.
In the same order, the values of `COC1CCN(c2ncnc3c2c2ccc(S(=O)(=O)NC4(C#N)CC4)cc2n3-c2nnc(C(F)F)s2)CC1` [Example 44, N-(1-Cyanocyclopropyl)-9-(5-(difluoromethyl)-1,3,4-thiadiazol-2-yl)-4-(4-methoxypiperidin-1-yl)-9H-pyrimido[4,5-b]indole-7-sulfonamide] are less than 100 nM and less than 100 nM.
With `C[C@@H]1CN(C(=O)N(C)C)[C@@H](C)CN1c1ncnc2c1c1cc(F)c(S(=O)(=O)NC3(C#N)CC3)cc1n2-c1nnc(C(F)F)s1` [Example 45, (2S,5R)-4-(7-(N-(1-Cyanocyclopropyl)sulfamoyl)-9-(5-(difluoromethyl)-1,3,4-thiadiazol-2-yl)-6-fluoro-9H-pyrimido[4,5-b]indol-4-yl)-N,N,2,5-tetramethylpiperazine-1-carboxamide], the IC50 (in assay [1]; in the assay on Kuramochi cell line) was less than 100 nM in each case.
Consider `C[C@H]1CN(c2ncnc3c2c2cc(F)c(S(=O)(=O)NC4(C#N)CC4)cc2n3-c2nnc(C(F)F)s2)CCN1C(=O)N(C)C` [Example 46, (S)-4-(7-(N-(1-Cyanocyclopropyl)sulfamoyl)-9-(5-(difluoromethyl)-1,3,4-thiadiazol-2-yl)-6-fluoro-9H-pyrimido[4,5-b]indol-4-yl)-N,N,2-trimethylpiperazine-1-carboxamide], for which the IC50 (in assay [1]; in the assay with Kuramochi cell line) was less than 100 nM throughout.
`COC1(C(F)(F)F)CCN(c2ncnc3c2c2ccc(S(=O)(=O)NC4(C#N)CC4)cc2n3-c2nnc(C(F)F)s2)CC1` [Example 47, N-(1-Cyanocyclopropyl)-9-(5-(difluoromethyl)-1,3,4-thiadiazol-2-yl)-4-(4-methoxy-4-(trifluoromethyl)piperidin-1-yl)-9H-pyrimido[4,5-b]indole-7-sulfonamide]: the IC50 in assay [1] is less than 100 nM; in the assay on Kuramochi cell line, 100 to 1000 nM.
In the same order, the values of `CC1(O)CCN(c2ncnc3c2c2ccc(S(=O)(=O)NC4(C#N)CC4)cc2n3-c2nnc(C(F)F)s2)CC1` [Example 48, N-(1-Cyanocyclopropyl)-9-(5-(difluoromethyl)-1,3,4-thiadiazol-2-yl)-4-(4-hydroxy-4-methylpiperidin-1-yl)-9H-pyrimido[4,5-b]indole-7-sulfonamide] are less than 100 nM and less than 100 nM.
